Laboratory results reported in patent US8143226B2, “Tyrosine kinase receptor antagonists and methods of treatment for breast cancer” (The Regents of the University of California, priority 2005, dated 2012).

Assays:
Format in all cases: cell-based
[1] = target: IGF-1R (Homo sapiens, UniProt P08069); assay: IGF-1R phosphorylation ELISA in MCF-7/HER2-18 cells; design: endogenous in cells; host or cells: MCF-7/HER2-18; details: 3 nM IGF-I 10 min
Description: RTK inhibitors were dissolved in DMSO and diluted with culture medium before being added to cells for 1.5 hour at 37° C. The final concentration of DMSO during the incubation was 0.3% . For some studies, cells were also stimulated with 3 nM IGF-I for 10 minutes at 37° C. Reactions were terminated by rapidly aspirating medium and washing cells three times with ice cold PBS. Cells were harvested and solubilized in 50 mM HEPES, 150 mM NaCl, 1% Triton X-100, 1 mM PMSF, and 2 mM vanadate for 1 hour at 4° C. Protein concentrations were determined by BCA assay (Pierce, Rockford, Ill.). […] Briefly, 10 μg lysate protein were added to triplicate wells in a 96-well plate coated with monoclonal antibody to the IGF-IR (IR3; 2 μg/ml), and incubated for 18 hours at 4° C. Plates were washed five times and then HRP-conjugated anti-phosphotyrosine antibody (0.3 μg/ml), diluted in Solution B (50 mM HEPES, pH 7.6, 150 mM NaCl, 0.05% Tween-20, 1 mM PMSF, 2 mM vanadate and 1 mg/ml bacitracin), was added for two hours at 22° C. Plates were washed five times prior to color development with TMB substrate, which was terminated with 1.0 M H3PO4. Values for receptor phosphorylation were determined by measuring absorbance at 450 nm.

[2] = system: MCF-7/neo cells; assay: Tamoxifen and/or NDGA growth inhibition of MCF-7/neo cells (CyQuant); details: Homo sapiens, MCF7, 144 h; MCF-7/neo cells, tamoxifen 100 nM, 6 days
Description: (§1) Cells were estrogen-starved for three days in DMEM containing 10% charcoal-[…]-stripped FCS (CDSS) prior to their plating in 96 well plates. Cells were plated in 100 μl of the same media, allowed to adhere overnight, and then were switched to DMEM+10% CDSS supplemented with 100 pM estrogen. […] The media and inhibitors were refreshed on day 3, the cultures were harvested on day 6, and a CyQuant assay was performed as described above.

[3] = system: MCF-7/HER2-18 cells; assay: Tamoxifen and/or NDGA growth inhibition of MCF-7/HER2-18 cells (CyQuant); details: Homo sapiens, 144 h; MCF-7/HER2-18 cells, tamoxifen 100 nM, 6 days
Description: as §1

Sequence of IGF-1R (P08069 31-1367): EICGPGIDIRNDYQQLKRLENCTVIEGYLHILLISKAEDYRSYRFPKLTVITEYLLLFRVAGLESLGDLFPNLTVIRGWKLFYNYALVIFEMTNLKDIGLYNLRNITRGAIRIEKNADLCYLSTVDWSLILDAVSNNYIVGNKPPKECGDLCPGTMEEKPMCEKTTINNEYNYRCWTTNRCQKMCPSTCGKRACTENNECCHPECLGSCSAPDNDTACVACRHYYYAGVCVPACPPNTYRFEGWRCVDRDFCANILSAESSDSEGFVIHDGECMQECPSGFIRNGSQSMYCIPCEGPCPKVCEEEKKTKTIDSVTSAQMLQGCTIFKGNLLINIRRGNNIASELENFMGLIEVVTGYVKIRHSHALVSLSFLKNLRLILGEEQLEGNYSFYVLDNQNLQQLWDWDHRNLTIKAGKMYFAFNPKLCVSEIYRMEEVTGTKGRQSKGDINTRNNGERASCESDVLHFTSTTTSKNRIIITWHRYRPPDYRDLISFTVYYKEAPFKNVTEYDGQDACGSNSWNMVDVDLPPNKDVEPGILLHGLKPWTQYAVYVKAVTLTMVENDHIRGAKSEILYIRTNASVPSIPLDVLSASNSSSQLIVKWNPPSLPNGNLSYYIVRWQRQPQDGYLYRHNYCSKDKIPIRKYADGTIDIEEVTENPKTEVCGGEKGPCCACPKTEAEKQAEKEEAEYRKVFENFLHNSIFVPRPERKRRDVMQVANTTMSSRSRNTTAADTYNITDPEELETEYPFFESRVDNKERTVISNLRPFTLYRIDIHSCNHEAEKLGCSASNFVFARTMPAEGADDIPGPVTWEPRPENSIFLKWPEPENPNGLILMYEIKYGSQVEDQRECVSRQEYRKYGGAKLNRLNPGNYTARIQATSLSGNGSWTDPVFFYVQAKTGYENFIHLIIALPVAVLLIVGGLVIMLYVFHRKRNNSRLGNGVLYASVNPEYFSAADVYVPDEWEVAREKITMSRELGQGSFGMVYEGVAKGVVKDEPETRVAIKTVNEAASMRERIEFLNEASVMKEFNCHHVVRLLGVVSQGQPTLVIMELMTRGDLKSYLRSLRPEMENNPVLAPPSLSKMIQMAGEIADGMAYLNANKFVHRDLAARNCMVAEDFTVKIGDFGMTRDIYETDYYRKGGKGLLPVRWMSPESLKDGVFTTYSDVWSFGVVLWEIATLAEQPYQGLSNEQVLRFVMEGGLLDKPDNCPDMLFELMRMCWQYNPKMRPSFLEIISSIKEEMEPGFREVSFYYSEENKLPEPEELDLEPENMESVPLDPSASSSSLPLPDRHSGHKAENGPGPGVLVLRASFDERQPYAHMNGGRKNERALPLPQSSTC

Row | IGF-1 stimulated phosphorylation of the IGF-1R [1] | SMILES | inhibition at 0.1 µM [2] | inhibition at 0.1 µM [3]
1 | only a weak inhibitory effect | COc1cc2ncnc(Nc3ccc(F)c(Cl)c3)c2cc1OCCCN1CCOCC1 [gefitinib, Gefitinib, reference compound] | – | –
2 | – | CC/C(=C(\c1ccccc1)c1ccc(OCCN(C)C)cc1)c1ccccc1 [tamoxifen, reference compound] | > 50% | 24%
